In PMC8092220, “Insights into the Relationship between Cobamide Synthase and the Cell Membrane” (mBio, 2021):

Target: T1, cobamide (5′ phosphate) synthase (CobS) (Salmonella enterica, UniProt Q05602)
T1 construct: CobS^WT reconstituted in proteoliposomes
Assay: DRaCALA with […]α-RP, CobS proteoliposomes (Kd […] for DHPC-solubilized CobS); also protection in limited trypsin proteolysis
Format: binding

T1 sequence (Q05602 whole entry): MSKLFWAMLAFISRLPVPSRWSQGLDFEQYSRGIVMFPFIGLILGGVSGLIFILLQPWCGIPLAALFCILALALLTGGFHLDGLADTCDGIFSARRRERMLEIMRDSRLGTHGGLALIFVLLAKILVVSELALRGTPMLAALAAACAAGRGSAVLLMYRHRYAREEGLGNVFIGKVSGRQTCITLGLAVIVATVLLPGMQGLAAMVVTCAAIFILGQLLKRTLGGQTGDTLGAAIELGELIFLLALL

SMILES: Cc1cc2ncn([C@H]3O[C@H](COP(=O)(O)O)[C@@H](O)[C@H]3O)c2cc1C [α-RP, N1-(5-phospho-alpha-D-ribosyl)-5,6-dimethylbenzimidazole]
- Kd: 580 nM
